The experiment deals with T1, SIRT1 (Homo sapiens, UniProt Q96EB6).
T1 sequence (Q96EB6 1-747): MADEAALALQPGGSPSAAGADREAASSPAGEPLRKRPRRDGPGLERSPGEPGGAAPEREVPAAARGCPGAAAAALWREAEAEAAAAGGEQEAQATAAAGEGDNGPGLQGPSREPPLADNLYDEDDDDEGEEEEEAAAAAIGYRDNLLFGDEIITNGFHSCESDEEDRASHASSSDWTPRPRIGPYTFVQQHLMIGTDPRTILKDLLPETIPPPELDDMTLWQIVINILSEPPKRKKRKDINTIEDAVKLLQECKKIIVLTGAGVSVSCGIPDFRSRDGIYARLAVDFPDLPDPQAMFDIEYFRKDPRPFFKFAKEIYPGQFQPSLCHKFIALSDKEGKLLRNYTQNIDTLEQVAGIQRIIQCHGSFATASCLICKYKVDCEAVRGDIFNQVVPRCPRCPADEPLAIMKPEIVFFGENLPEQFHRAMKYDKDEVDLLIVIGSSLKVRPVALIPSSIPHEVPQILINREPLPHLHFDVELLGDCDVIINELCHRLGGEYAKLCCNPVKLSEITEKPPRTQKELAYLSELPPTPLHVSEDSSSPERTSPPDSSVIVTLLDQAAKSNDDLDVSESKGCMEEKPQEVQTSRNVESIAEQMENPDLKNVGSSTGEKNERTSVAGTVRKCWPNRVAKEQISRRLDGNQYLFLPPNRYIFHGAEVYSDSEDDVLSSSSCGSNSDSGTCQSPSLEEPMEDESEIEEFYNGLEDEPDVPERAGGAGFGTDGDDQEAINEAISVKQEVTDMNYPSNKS
The experiment can be described thus: Trp mass spectrometry assay (SIRT1 activation). Format: biochemical. The following applies: Trp peptide substrate; for Tryp AVG EC1.5 (μM): concentration of test compound that results in 150% activation of SIRT1; for Emax: percent maximum fold activation of SIRT1, read-out: Tryp % Fold Act. The gist of the method: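 N-His-tagged SIRT1 (10 nM), expressed in E. coli, was incubated with 0.5 μM Ac-RHKK(Ac)W-NH2 peptide and 120 μM NAD+ for 25 min at 25 °C in HEPES pH 7.5 with […]. The reaction was stopped with formic acid and O-acetyl-ADP-ribose or deacetylated peptide was quantified by mass spectrometry. Results are given as EC1.5 and percent maximal activation relative to DMSO control.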

Consider `O=C(Nc1ccc(F)cn1)N1c2nc(N3CCCC(C(F)(F)F)C3)ccc2N2CCC[C@@H]1C2` (some centres unmarked) [Example 362], for which the “Tryp AVG EC1.5 (μM)” value is given as “C (EC1.5>25 μM)” and the Emax is no less than 150%.
Regarding `O=C(Nc1cnccn1)N1c2nc(-c3cc(C(F)(F)F)cc(C(F)(F)F)c3)ccc2C2CC[C@H]1C2` [Example 363], the “Tryp AVG EC1.5 (μM)” value is on record as “B (EC1.5 1-25 μM)” and the Emax was no less than 150%.
`O=C(Nc1cnccn1)N1c2nc(-c3cc(Cl)cc(Cl)c3)ccc2N2CC[C@H]1C2` [Example 364]: the “Tryp AVG EC1.5 (μM)” value is recorded as “B (EC1.5 1-25 μM)” and the Emax was no less than 150%.
On to `O=C(Nc1cccc(-c2cnco2)c1)N1c2nc(-c3cccc(Cl)c3)ccc2N2CC[C@H]1C2` [Example 365], for which the “Tryp AVG EC1.5 (μM)” value was “A (EC1.5<1 μM)” and the Emax is no less than 150%.
The corresponding values for `COc1cncc(NC(=O)N2c3nc(-c4cccc(N5CCCC5)c4)ccc3N3CC[C@H]2C3)n1` [Example 366] are “A (EC1.5<1 μM)” and no less than 150%.
The corresponding values for `O=C(Nc1ccccn1)N1c2nc(-c3ccnc(N4CCC(C(F)(F)F)C4)c3)ccc2N2CC[C@H]1C2` (some centres unmarked) [Example 367] are “A (EC1.5<1 μM)” and no less than 150%.
The corresponding values for `COc1cc(NC(=O)N2c3nc(-c4ccnc(N5CCC(C(F)(F)F)C5)c4)ccc3N3CC[C@H]2C3)ncn1` (some centres unmarked) [Example 368] are “B (EC1.5 1-25 μM)” and no less than 150%.
Take `O=C(Nc1ccccn1)N1c2nc(-c3cncc(C(F)(F)F)c3)ccc2N2CCC[C@H]1C2` [Example 369]: the “Tryp AVG EC1.5 (μM)” value is reported as “A (EC1.5<1 μM)” and the Emax is no less than 150%.
In the case of `Cc1n[nH]cc1-c1ccc2c(n1)N(C(=O)Nc1ccccn1)[C@H]1CCN2C1` [Example 370], the “Tryp AVG EC1.5 (μM)” value was “B (EC1.5 1-25 μM)” and the Emax is no less than 150%.
The corresponding values for `NC(=O)c1cncc(-c2ccc3c(n2)N(C(=O)Nc2ccccn2)[C@H]2CCN3C2)c1` [Example 371] are “B (EC1.5 1-25 μM)” and no less than 150%.
With `O=C(Nc1ccccn1)N1c2nc(-c3ccc4nonc4c3)ccc2N2CC[C@H]1C2` [Example 372], the “Tryp AVG EC1.5 (μM)” value is “B (EC1.5 1-25 μM)” and the Emax was no less than 150%.
The corresponding values for `N#Cc1cncc(-c2ccc3c(n2)N(C(=O)Nc2ccccn2)[C@H]2CCN3C2)c1` [Example 373] are “A (EC1.5<1 μM)” and no less than 150%.
The corresponding values for `O=C(Nc1ccccn1)N1c2nc(-c3cncc(F)c3)ccc2N2CC[C@H]1C2` [Example 374] are “B (EC1.5 1-25 μM)” and no less than 150%.
As for `CS(=O)(=O)c1cncc(-c2ccc3c(n2)N(C(=O)Nc2ccccn2)[C@H]2CCCN3C2)c1` [Example 375], the “Tryp AVG EC1.5 (μM)” value is recorded as “A (EC1.5<1 μM)” and the Emax was no less than 150%.
On to `CS(=O)(=O)c1cncc(-c2ccc3c(n2)N(C(=O)Nc2cccnc2)[C@H]2CCCN3C2)c1` [Example 376], for which the “Tryp AVG EC1.5 (μM)” value is “A (EC1.5<1 μM)” and the Emax is no less than 150%.
Regarding `CS(=O)(=O)c1cncc(-c2ccc3c(n2)N(C(=O)Nc2cncc(F)c2)[C@H]2CCCN3C2)c1` [Example 377], the “Tryp AVG EC1.5 (μM)” value is recorded as “A (EC1.5<1 μM)” and the Emax was no less than 150%.
Take `CS(=O)(=O)c1cncc(-c2ccc3c(n2)N(C(=O)Nc2cnccn2)[C@H]2CCCN3C2)c1` [Example 378]: the “Tryp AVG EC1.5 (μM)” value is “A (EC1.5<1 μM)” and the Emax was no less than 150%.
On to `CS(=O)(=O)c1cncc(-c2ccc3c(n2)N(C(=O)Nc2ccncn2)[C@H]2CCCN3C2)c1` [Example 379], for which the “Tryp AVG EC1.5 (μM)” value was “A (EC1.5<1 μM)” and the Emax was no less than 150%.
Turning to `CS(=O)(=O)c1cncc(-c2ccc3c(n2)N(C(=O)Nc2cccnn2)[C@H]2CCCN3C2)c1` [Example 380], the “Tryp AVG EC1.5 (μM)” value is “A (EC1.5<1 μM)” and the Emax was no less than 150%.
The corresponding values for `N#Cc1cccc(-c2ccc3c(n2)N(C(=O)Nc2cccnn2)[C@H]2CCCN3C2)c1` [Example 381] are “B (EC1.5 1-25 μM)” and no less than 150%.
Turning to `CC(C)(C)OC(=O)N1CCCN(c2ccc3c(n2)N(C(=O)Nc2ccncn2)[C@H]2CCCN3C2)CC1` [Example 382], the “Tryp AVG EC1.5 (μM)” value is on record as “C (EC1.5>25 μM)” and the Emax was less than 150%.
In the case of `Cc1nc(NC(=O)N2c3nc(-c4cccc(N(C)C)c4)ccc3N3CCC[C@H]2C3)sc1C` [Example 383], the “Tryp AVG EC1.5 (μM)” value was “A (EC1.5<1 μM)” and the Emax is no less than 150%.
Take `CN(C)c1cccc(-c2ccc3c(n2)N(C(=O)Nc2ccc(F)cn2)[C@H]2CCCN3C2)c1` [Example 384]: the “Tryp AVG EC1.5 (μM)” value is reported as “B (EC1.5 1-25 μM)” and the Emax was no less than 150%.
Regarding `COc1cc(NC(=O)N2c3nc(-c4cccc(N(C)C)c4)ccc3N3CCC[C@H]2C3)ncn1` [Example 385], the “Tryp AVG EC1.5 (μM)” value is recorded as “A (EC1.5<1 μM)” and the Emax was no less than 150%.
The corresponding values for `CN(C)c1cccc(-c2ccc3c(n2)N(C(=O)Nc2ccccn2)[C@H]2CCCN3C2)c1` [Example 386] are “B (EC1.5 1-25 μM)” and no less than 150%.
Take `O=C(Nc1ccccn1)N1c2nc(-c3cccc(Cl)c3)ccc2N2CCC[C@H]1C2` [Example 387]: the “Tryp AVG EC1.5 (μM)” value is listed as “A (EC1.5<1 μM)” and the Emax was no less than 150%.
The corresponding values for `O=C(Nc1ccccn1)N1c2nc(-c3ccnc(N4CCC(F)(F)C4)c3)ccc2N2CC[C@H]1C2` [Example 388] are “A (EC1.5<1 μM)” and no less than 150%.
The corresponding values for `O=C(Nc1cnccn1)N1c2nc(-c3ccnc(N4CCC(C(F)(F)F)C4)c3)ccc2N2CC[C@H]1C2` (some centres unmarked) [Example 389] are “A (EC1.5<1 μM)” and no less than 150%.
For the compound `COc1cc(NC(=O)N2c3nc(-c4ccnc(N5CCC(F)(F)C5)c4)ccc3N3CC[C@H]2C3)ncn1` [Example 390], the “Tryp AVG EC1.5 (μM)” value was “B (EC1.5 1-25 μM)” and the Emax was no less than 150%.
`O=C(Nc1ccc(F)cn1)N1c2nc(-c3ccnc(N4CCC(C(F)(F)F)C4)c3)ccc2N2CC[C@H]1C2` (some centres unmarked) [Example 391]: the “Tryp AVG EC1.5 (μM)” value was “A (EC1.5<1 μM)” and the Emax is no less than 150%.
With `O=C(Nc1cccnc1)N1c2nc(-c3cncc(C(F)(F)F)c3)ccc2N2CCC[C@H]1C2` [Example 392], the “Tryp AVG EC1.5 (μM)” value is on record as “A (EC1.5<1 μM)” and the Emax was no less than 150%.
Regarding `O=C(Nc1ccncn1)N1c2nc(-c3cncc(C(F)(F)F)c3)ccc2N2CCC[C@H]1C2` [Example 393], the “Tryp AVG EC1.5 (μM)” value is reported as “A (EC1.5<1 μM)” and the Emax is no less than 150%.
The corresponding values for `COc1cc(NC(=O)N2c3nc(-c4cncc(C(F)(F)F)c4)ccc3N3CCC[C@H]2C3)ncn1` [Example 394] are “A (EC1.5<1 μM)” and no less than 150%.
For the compound `Cn1cc(-c2ccc3c(n2)N(C(=O)Nc2cccnc2)[C@H]2CCN3C2)cn1` [Example 395], the “Tryp AVG EC1.5 (μM)” value is “B (EC1.5 1-25 μM)” and the Emax is no less than 150%.
With `COc1cc(-c2cccc(Cl)c2)nc2c1N1CC[C@@H](C1)N2C(=O)Nc1cnccn1` [Example 396], the “Tryp AVG EC1.5 (μM)” value was “A (EC1.5<1 μM)” and the Emax is no less than 150%.
The corresponding values for `O=C(Nc1cnccn1)N1c2nc(-c3cc(F)cc(F)c3)ccc2N2CC[C@H]1C2` [Example 397] are “C (EC1.5>25 μM)” and no less than 150%.
The corresponding values for `COc1ncc(-c2ccc3c(n2)N(C(=O)Nc2cnccn2)[C@H]2CCN3C2)c(OC)n1` [Example 398] are “B (EC1.5 1-25 μM)” and no less than 150%.
With `COc1ccc(-c2ccc3c(n2)N(C(=O)Nc2cnccn2)[C@H]2CCN3C2)cn1` [Example 399], the “Tryp AVG EC1.5 (μM)” value is given as “B (EC1.5 1-25 μM)” and the Emax was no less than 150%.
As for `O=C(Nc1cnccn1)N1c2nc(-c3cncc(F)c3)ccc2N2CC[C@H]1C2` [Example 400], the “Tryp AVG EC1.5 (μM)” value is “B (EC1.5 1-25 μM)” and the Emax was no less than 150%.
The corresponding values for `O=C(Nc1ccc(F)cn1)N1c2nc(-c3cncc(Cl)c3)ccc2N2CCC[C@H]1C2` [Example 401] are “A (EC1.5<1 μM)” and no less than 150%.
The corresponding values for `Cc1nc(NC(=O)N2c3nc(-c4cncc(Cl)c4)ccc3N3CCC[C@H]2C3)sc1C` [Example 402] are “A (EC1.5<1 μM)” and no less than 150%.
Take `CN(C)c1cccc(-c2ccc3c(n2)N(C(=O)Nc2cnccn2)[C@H]2CCCN3C2)c1` [Example 403]: the “Tryp AVG EC1.5 (μM)” value was “A (EC1.5<1 μM)” and the Emax was no less than 150%.
Turning to `COc1cc(NC(=O)N2c3nc(-c4cncc(F)c4)ccc3N3CCC[C@H]2C3)ncn1` [Example 404], the “Tryp AVG EC1.5 (μM)” value is given as “A (EC1.5<1 μM)” and the Emax is no less than 150%.

The record behind these values is patent US9765075B2, “Substituted bridged urea analogs as sirtuin modulators” (GLAXOSMITHKLINE LLC, priority 2013, dated 2017).
